# Test results reported in PMC9412300, “In Vitro Evaluation and Mitigation of Niclosamide’s Liabilities as a COVID-19 Treatment” (Vaccines, 2022).
# Values joined by “and” are separate entries in the source; they are usually repeats but may differ in a detail not shown here. Identical values can stand only once. Like-named read-outs stand apart in the source and are kept apart here.
# Tests used:
# [1] = system: SARS-CoV-2 B.1.1.7 variant; assay: microbe, parasite or virus in culture; format: cell-based; conditions: for IC50: read-out: Vero-E6 (B.1.1.7) IC50
# [2] = system: SARS-CoV-2 WA1 variant; assay: microbe, parasite or virus in culture; format: cell-based
# [3] = system: SARS-CoV-2 B.1.1.7 variant; assay: microbe, parasite or virus in culture; format: cell-based
# [4] = system: SARS-CoV-2 B.1.1.7 variant; format: cell-based
# [5] = Cell viability in VeroE6, shortened 24 h infection assay; conditions: African green monkey, VeroE6 cells infected with SARS-CoV-2, CC50 in shortened assay, VeroE6, 1 h preincubation, 24 h infection, top 10 μM
# [6] = Severe acute respiratory syndrome coronavirus 2, Vero C1008, 48 h
# [7] = Severe acute respiratory syndrome coronavirus 2, NCI-H1437, 48 h
# [8] = VeroE6, B.1.1.7, 156, 313, 625 nM niclosamide vs viral control
SMILES,IC50 [1] [µM],IC50 ([2]; read-out: H1437 (WA1) IC50) [µM],H1437 (WA1) IC50 [2],other results
O=C(Nc1ccc([N+](=O)[O-])cc1Cl)c1ccccc1O [Compound 2],–,–,–,"IC50 [1, 6]: 0.296 µM; IC50 [2, 7]: 4.92 µM"
Cc1ccc(O)c(C(=O)Nc2ccc([N+](=O)[O-])cc2Cl)c1 [Compound 3],1.25,2.6,–,–
COc1ccc(O)c(C(=O)Nc2ccc([N+](=O)[O-])cc2Cl)c1 [Compound 4],1.77,10.9,–,–
O=C(Nc1ccccc1Cl)c1cc(Cl)ccc1O [Compound 5],0.89,> 20,–,–
Cc1ccc(NC(=O)c2cc(Cl)ccc2O)c(Cl)c1 [Compound 6],0.76,> 20,–,–
COC(=O)c1ccc(NC(=O)c2cc(Cl)ccc2O)c(Cl)c1 [Compound 7],–,–,Inverted,"IC50 [1, 6]: 0.334 µM; exacerbation of infection in H1437 (inverted concentration-response curves at high concentrations) [2]: exacerbate infection"
O=C(O)c1ccc(NC(=O)c2cc(Cl)ccc2O)c(Cl)c1 [Compound 8],> 20,–,Inverted,exacerbation of infection in H1437 (inverted concentration-response curves at high concentrations) [2]: exacerbate infection
O=C(Nc1ccc([N+](=O)[O-])cc1Cl)c1cccc(Cl)c1 [Compound 9],–,–,complete loss of activity,"Vero-E6 (B.1.1.7) IC50 [1]: complete loss of activity; IC50 [1, 6]: > 20 µM; IC50 [2, 7]: > 20 µM"
COc1ccc(NC(=O)c2cc(Cl)ccc2O)c(Cl)c1 [Compound 10],4.25,–,Inverted,exacerbation of infection in H1437 (inverted concentration-response curves at high concentrations) [2]: exacerbate infection
CC(C)(C)c1ccc(O)c(C(=O)Nc2ccc([N+](=O)[O-])cc2Cl)c1 [Compound 11],–,–,–,"IC50 [1, 6]: 0.423 µM; IC50 [2, 7]: 3.1 µM"
COc1ccc(O)c(C(=O)Nc2ccc([N+](=O)[O-])cc2Cl)c1 [Compound 12],1.5,16.9,–,–
COC(=O)c1ccc(NC(=O)c2cc(C(C)(C)C)ccc2O)c(Cl)c1 [Compound 13],> 20,> 20,–,–
CC(C)(C)c1ccc(O)c(C(=O)Nc2ccc(C(=O)O)cc2Cl)c1 [Compound 14],> 20,–,Inverted,–
CC(C)(C)c1ccc(O)c(C(=O)Nc2ccc(C(=O)O)cc2F)c1 [Compound 15],> 20,–,Inverted,–
Cc1cc(C(=O)O)ccc1NC(=O)c1cc(C(C)(C)C)ccc1O [Compound 16],> 20,–,Inverted,–
CC(C)(C)c1cc(C(=O)Nc2ccc(NS(C)(=O)=O)cc2Cl)c(O)c(C(C)(C)C)c1 [Compound 18],> 20,–,Inverted,–

SMILES,IC50 [1] [µM],IC50 ([2]; read-out: H1437 (WA1) IC50) [µM],H1437 (WA1) IC50 [2],other results
CC(C)(C)c1cc(C(=O)Nc2ccc(N)cc2Cl)c(O)c(C(C)(C)C)c1 [Compound 19],> 20,–,Inverted,–
Cc1cc(NC(=O)c2cc(C(C)(C)C)cc(C(C)(C)C)c2O)ccc1C(=O)O [Compound 20],> 20,> 20,–,–
COC(=O)c1ccc(NC(=O)c2cc(C3CCCCC3)ccc2O)c(Cl)c1 [Compound 21],9.91,> 20,–,–
O=C(O)c1ccc(NC(=O)c2cc(C3CCCCC3)ccc2O)c(Cl)c1 [Compound 22],4.51,–,Inverted,exacerbation of infection in H1437 (inverted concentration-response curves at high concentrations) [2]: exacerbate infection
COC(=O)c1ccc(NC(=O)c2cc(C(F)(F)F)ccc2O)c(C)c1 [Compound 23],> 20,> 20,–,–
N#Cc1ccc(NC(=O)c2cc(Cl)ccc2O)c(Cl)c1 [Compound 24],–,–,–,"IC50 [1, 6]: 0.348 µM; IC50 [2, 7]: 1.07 µM"
COC(=O)c1ccc(NC(=O)c2cccc(C(C)(C)C)c2O)c(Cl)c1 [Compound 25],> 20,–,Inverted,exacerbation of infection in H1437 (inverted concentration-response curves at high concentrations) [2]: exacerbate infection
CC(C)(C)c1cc(C(=O)Nc2ccc(C(=O)O)cc2Cl)c(O)c(C(C)(C)C)c1 [Compound 26],> 20,> 20,–,–
Cc1cc(NC(=O)c2cc(C(C)(C)C)cc(C(C)(C)C)c2O)ccc1C(=O)O [Compound 27],16.5,–,–,–
COc1ccc(O)c(C(=O)Nc2ccc(C(=O)O)cc2C)c1 [Compound 28],> 20,–,Inverted,–
CC(C)(C)c1cccc(C(=O)Nc2ccc(C(=O)O)cc2Cl)c1O [Compound 30],> 20,–,Inverted,–
CC(C)(C)c1cccc(C(=O)Nc2ccc([N+](=O)[O-])cc2Cl)c1O [Compound 31],> 20,> 20,–,–
CC(C)(C)c1cccc(C(=O)Nc2ccc(N)cc2Cl)c1O [Compound 32],> 20,> 20,–,–
CC(C)(C)c1cccc(C(=O)Nc2ccc(NS(C)(=O)=O)cc2Cl)c1O [Compound 33],2.88,–,Inverted,exacerbation of infection in H1437 (inverted concentration-response curves at high concentrations) [2]: exacerbate infection
O=C(Nc1ccc(Br)cc1Cl)c1cc(Cl)ccc1O [Compound 34],0.76,3.49,–,–
O=C(Nc1ccc([N+](=O)[O-])cc1Cl)c1cc(Cl)ccc1O [Niclosamide],–,–,–,"selectivity index (CC50/IC50), VeroE6 [1]: 1.86 and < 2; IC50 [1, 6]: 0.564 µM; selectivity index (CC50/IC50), H1437 [3]: 1.67 and < 2; IC50 ([3]; Severe acute respiratory syndrome coronavirus 2, NCI-H1437): 0.261 µM; IC50 [2, 7]: 16.8 µM; maximum size of syncytia (max area of viral objects) [4, 8]: decreased; number of individually infected cells within a well (viral objects per well) [4, 8]: reduced; N protein intensity of remaining viral objects ([4]; VeroE6, B.1.1.7, escalating concentrations 156, 313, 625 nM): increased; CC50 at 25 h [5]: > 10 µM"
